Read-outs that look alike come from different tables or passages of the source. Marks after values point to notes of the source that are not given here.
Tests used:
mice [1] = system: mice; design: method as in PMID 25446027; conditions: i.p., dose protecting 50% of animals against seizures, in mg/kg; cited from earlier work
rats [2] = system: rats; design: method as in PMID 25446027; conditions: p.o., in mg/kg; cited from earlier work
mice [3] = conditions: cited from earlier work
[4] = system: Salmonella typhimurium TA100; assay type: cell-based; conditions: TA100, 40 ng/mL; for MI (mutagenic index): positive when MI ≥ 2
Protocol: The Ames assay was conducted by the preincubation method using S. typhimurium TA100 strain [60]. Each probe was performed in triplicate; 100 µL of the overnight bacterial culture, 50 µL of the investigated compounds at a concentration of 40 ng/mL, and 500 µL of a buffer solution were preincubated for 30 min at 37 °C and then added to 2 mL of the top agar containing histidine/biotin solution. The resulting mixture was poured onto minimal glucose plates. After 48 h incubation, the revertants were counted manually and the results were expressed as mutagenic index (MI) (MI = the number of revertant colonies induced in the tested sample/the number of spontaneous revertants in the negative control). […] DMSO served as the negative (solvent) control.

Vibrio harveyi BB7M [5] = assay type: cell-based; conditions: 40 ng/mL; for MI (mutagenic index): positive when MI ≥ 2
Protocol: (§1) In the experiment, overnight cultures of bacterial strains BB7, BB7M, BB7X, and BB7XM were used. Each culture was centrifuged and 10 µL of V. harveyi pellets was placed in 20 mL of BOSS medium. The culture was cultivated at 30 °C until the optical density reached 0.1 at 600 nm (OD600). Then, 10 µL of test compound solution (final concentration of 40 ng/mL) was added to the bacterial culture and incubated. Incubation was continued until OD600 reached 0.3–0.4. Next, 5 × 10^6 bacterial cells were spread onto BOSS agar plates with neomycin. The plates were incubated at 30 °C for 48 h and the number of neomycin-resistant colonies was counted. […] All the experiments were analyzed in three independent repetitions. Finally, MI was calculated.

Vibrio harveyi BB7X [6] = assay type: cell-based; conditions: 40 ng/mL; for MI (mutagenic index): positive when MI ≥ 2
Protocol: as §1

Vibrio harveyi BB7 [7] = assay type: cell-based; conditions: BB7, 40 ng/mL; for MI (mutagenic index): positive when MI ≥ 2
Protocol: as §1

Vibrio harveyi BB7XM [8] = experiment: Vibrio harveyi mutagenicity test, BB7XM; assay type: cell-based; conditions: 40 ng/mL; for MI (mutagenic index): positive when MI ≥ 2
Protocol: as §1

[9] = system: Salmonella typhimurium TA100; assay type: cell-based; conditions: for Inhib. (%) of mutagenicity: against NQNO 40 ng/mL; for Number of revertants, Mean ± SD (antimutagenicity): test compound plus NQNO 40 ng/mL, NQNO line = mutagen alone
Excerpt: (§2) Triplicate plates were set up with each test compound concentration and the entire experiment was repeated twice.

Vibrio harveyi BB7M [10] = assay type: cell-based; conditions: for Inhib. (%) of mutagenicity: against NQNO 40 ng/mL; for Number of revertants, Mean ± SD (antimutagenicity): test compound plus NQNO 40 ng/mL, NQNO line = mutagen alone
Protocol: as §1, §2
(§3) The inhibition percentage of mutagenicity was calculated as described above in the Ames antimutagenicity assay procedure.

Vibrio harveyi BB7XM [11] = assay type: cell-based; conditions: for Inhib. (%) of mutagenicity: against NQNO 40 ng/mL; for Number of revertants, Mean ± SD (antimutagenicity): test compound plus NQNO 40 ng/mL, NQNO line = mutagen alone
Protocol: as §1, §2, §3

Vibrio harveyi BB7X [12] = assay type: cell-based; conditions: for Inhib. (%) of mutagenicity: against NQNO 40 ng/mL; for Number of revertants, Mean ± SD (antimutagenicity): test compound plus NQNO 40 ng/mL, NQNO line = mutagen alone
Protocol: as §1, §2, §3

Vibrio harveyi BB7 [13] = assay type: cell-based; conditions: for Inhib. (%) of mutagenicity: against NQNO 40 ng/mL; for Number of revertants, Mean ± SD (antimutagenicity): test compound plus NQNO 40 ng/mL, NQNO line = mutagen alone
Protocol: as §1, §2, §3

[14] = target: recombinant human P-gp membranes (Homo sapiens, UniProt P08183); experiment: P-gp ATPase activity assay (P-gp-Glo); conditions: compounds 10–100 µM, verapamil 100 µM; 5 mM Mg ATP, 37 °C, 45 min
Protocol: The changes in the ATPase activity of P-gp were determined by using the P-gp-Glo TM assay system (Promega). […] When P-gp ATPase activity is inhibited, ATP accumulates and becomes a substrate for luciferase, with a consequent increase in luminescence. The tested compounds at increasing concentration (10–100 µM) were incubated with 5 mM Mg ATP and 25 µg recombinant human P-gp membranes at 37 °C for 45 min. The luminescence signal was started by adding ATP detection buffer. After incubation at room temperature for 25 min, the samples were read in white 96-well plates on a multi-plate reader (BIOTEK).

mice [15] = system: mice; design: method as in PMID 25446027; conditions: i.p., printed in the ED50(MES) column; cited from earlier work
[16] = system: human glioblastoma astrocytoma cell line U373; experiment: MTT viability test on human glioblastoma cells; assay type: cell-based; conditions: U373, 10, 25, 50 or 100 µM, 24 h; listed as racemic compound
Protocol: Astrocyte cell line (ATCC, CRL-2541), human glioblastoma astrocytoma cell line U373 (ATCC, HTB17-1055), and human hepatoma HepG2 cells (ATCC, HB-8065) were used in the study. The cells were cultured in standard conditions (37 °C, 5% CO2), in EMEM medium with 2 mM glutamine and 1% non-essential amino acids, all supplemented with 10% FBS and antibiotics (penicillin–streptomycin; 10,000 U/mL; final concentration in culture medium was 1%).
The cells were seeded at a density of 1 × 10^4 in 96-well plates. Following overnight culture, the cells were treated with increasing doses of compounds 1–3 (i.e., 10, 25, 50, or 100 μM) and incubated for 24 h. Next, 10 µL of MTT (3-(4,5-dimethylthiazolyl-2)-2,5-diphenyltetrazolium bromide) reagent (Cayman) was added to each well and after 3 h of incubation (37 °C, 5% CO2) the medium was aspirated, and the formazan produced in the cells appeared as dark crystals at the bottom of the wells. Subsequently, crystal dissolving solution (Cayman) was added to each well and the optical density (OD) was determined at 570 nm on a plate reader (BIOTEK). Doxorubicin (DOX) was used as a positive control. When hepatotoxicity of test compounds was evaluated, the morphology of the cells was also determined using a bright-field inverted microscope (Nikon).

rats [17] = system: rats; design: unit not given beside the values; conditions: cited from earlier work
[18] = mice, i.p., dose producing toxicity in 50% of animals
[19] = mice, i.p., value printed in the scMet line

Chain of recombinant human P-gp membranes (P08183 whole entry): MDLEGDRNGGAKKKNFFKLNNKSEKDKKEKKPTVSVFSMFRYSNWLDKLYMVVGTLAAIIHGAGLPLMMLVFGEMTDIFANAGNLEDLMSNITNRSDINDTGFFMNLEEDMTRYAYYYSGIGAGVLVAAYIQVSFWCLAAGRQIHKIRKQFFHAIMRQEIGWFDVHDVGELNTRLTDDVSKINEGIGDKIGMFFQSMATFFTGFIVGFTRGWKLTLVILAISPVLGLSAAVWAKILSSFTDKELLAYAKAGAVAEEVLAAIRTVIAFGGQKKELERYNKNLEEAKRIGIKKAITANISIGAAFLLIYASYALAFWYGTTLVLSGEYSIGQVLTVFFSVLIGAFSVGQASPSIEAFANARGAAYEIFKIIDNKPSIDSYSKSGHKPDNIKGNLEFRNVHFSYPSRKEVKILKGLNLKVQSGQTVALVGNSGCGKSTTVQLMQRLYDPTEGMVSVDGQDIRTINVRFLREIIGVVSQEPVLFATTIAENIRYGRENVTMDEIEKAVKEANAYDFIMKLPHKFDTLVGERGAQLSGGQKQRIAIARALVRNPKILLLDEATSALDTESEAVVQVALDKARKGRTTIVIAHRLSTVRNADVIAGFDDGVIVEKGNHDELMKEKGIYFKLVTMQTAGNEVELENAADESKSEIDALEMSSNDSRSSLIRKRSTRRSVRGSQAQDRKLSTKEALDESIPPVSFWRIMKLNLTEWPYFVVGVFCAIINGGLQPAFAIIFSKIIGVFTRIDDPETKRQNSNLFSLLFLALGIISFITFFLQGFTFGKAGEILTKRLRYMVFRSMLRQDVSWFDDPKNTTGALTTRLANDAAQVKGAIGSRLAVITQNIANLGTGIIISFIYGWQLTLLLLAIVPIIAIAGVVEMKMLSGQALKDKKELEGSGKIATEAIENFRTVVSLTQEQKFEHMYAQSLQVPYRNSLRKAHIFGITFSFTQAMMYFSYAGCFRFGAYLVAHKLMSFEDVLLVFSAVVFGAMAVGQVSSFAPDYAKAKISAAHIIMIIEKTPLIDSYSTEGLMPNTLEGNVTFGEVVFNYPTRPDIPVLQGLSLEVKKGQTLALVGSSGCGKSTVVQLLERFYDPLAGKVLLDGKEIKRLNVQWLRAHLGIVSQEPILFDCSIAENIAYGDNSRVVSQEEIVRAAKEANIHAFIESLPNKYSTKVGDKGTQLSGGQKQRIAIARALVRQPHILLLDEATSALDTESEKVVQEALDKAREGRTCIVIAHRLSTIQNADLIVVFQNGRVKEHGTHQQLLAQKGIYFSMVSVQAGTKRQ

SMILES	ED50(MES) (mice [1])	ED50(MES) (rats [2])	Number of revertants, Mean ± SD [4]	MI (mutagenic index) [4]	Number of revertants, Mean ± SD (Vibrio harveyi BB7M [5])	MI (mutagenic index) (Vibrio harveyi BB7M [5])	Number of revertants, Mean ± SD (Vibrio harveyi BB7X [6])	MI (mutagenic index) (Vibrio harveyi BB7X [6])	Number of revertants, Mean ± SD (Vibrio harveyi BB7 [7])	MI (mutagenic index) (Vibrio harveyi BB7 [7])	Number of revertants, Mean ± SD (Vibrio harveyi BB7XM [8])	MI (mutagenic index) (Vibrio harveyi BB7XM [8])	Inhib. (%) of mutagenicity [9]	Number of revertants, Mean ± SD (antimutagenicity) [9]	Inhib. (%) of mutagenicity (Vibrio harveyi BB7M [10])	Number of revertants, Mean ± SD (antimutagenicity) (Vibrio harveyi BB7M [10])	Inhib. (%) of mutagenicity (Vibrio harveyi BB7XM [11])	Number of revertants, Mean ± SD (antimutagenicity) (Vibrio harveyi BB7XM [11])	Inhib. (%) of mutagenicity (Vibrio harveyi BB7X [12])	Number of revertants, Mean ± SD (antimutagenicity) (Vibrio harveyi BB7X [12])	further results
NC(=O)N1c2ccccc2C=Cc2ccccc21 [CBZ, carbamazepine]	9.85 ^#	3.57 ^^	–	–	–	–	–	–	–	–	–	–	–	–	–	–	–	–	–	–	TD50 (mice [3]; mouse, in vivo, ip): 47.8 ^#
Cc1cc(OCCN[C@@H]2CCCC[C@H]2O)ccc1Cl [Compound 1]	38.34 ^#	–	9 ± 4	0.6	22 ± 3	1.0	16 ± 5	0.9	21 ± 3	1.1	18 ± 2	1.6	(27) %	16 ± 2	(37) %	22 ± 2	(35) %	16 ± 2	(31) %	20 ± 4	Inhib. (%) of mutagenicity (Vibrio harveyi BB7 [13]): (32) %; Number of revertants, Mean ± SD (antimutagenicity) (Vibrio harveyi BB7 [13]): 26 ± 3; effect on P-gp ATPase activity (luminescence) [14]: more potent; ED50 (scMet) (mice [15]): >90.00 ^#scMet; TD50 (mice [3]; [18]): 66.03 ^#; TD50 (mice [3]; [19]): 66.03 ^#scMet
Cc1cc(OCCN[C@H]2CCCC[C@@H]2O)ccc1Cl [Compound 2]	–	–	3 ± 1	0.2	23 ± 3	1.1	10 ± 6	0.6	23 ± 5	1.2	10 ± 3	0.9	(38) %	14 ± 3	(41) %	20 ± 4	(40) %	14 ± 4	(30) %	21 ± 3	Inhib. (%) of mutagenicity (Vibrio harveyi BB7 [13]): (38) %; Number of revertants, Mean ± SD (antimutagenicity) (Vibrio harveyi BB7 [13]): 23 ± 4
Cc1cc(OCCNC2CCCCC2O)ccc1Cl (stereo not drawn) [Compound 3]	25.05 ^#	99.25 ^^	6 ± 3	0.4	27 ± 4	1.7	13 ± 4	1.0	23 ± 3	1.4	15 ± 4	1.4	(41) %	13 ± 3	(36) %	22 ± 5	(57) %	10 ± 4	(29) %	21 ± 4	cytotoxicity against human glioblastoma cells (MTT viability) [16]: less cytotoxic than the two enantiomers; Inhib. (%) of mutagenicity (Vibrio harveyi BB7 [13]): (51) %; Number of revertants, Mean ± SD (antimutagenicity) (Vibrio harveyi BB7 [13]): 19 ± 3; ED50 (scMet) (mice [15]): >150 ^#scMet; TD50 (mice [3]; [18]): 71.04 ^#; TD50 (mice [3]; [19]): 71.04 ^#scMet; TD50 (rats [17]; rats, p.o.): >250 ^^
O=C1NC(=O)C(c2ccccc2)(c2ccccc2)N1 [PHT, phenytoin]	6.48 ^#	32.2 ^^	–	–	–	–	–	–	–	–	–	–	–	–	–	–	–	–	–	–	TD50 (rats [17]; rats, p.o.): >500 ^^
CCCC(CCC)C(=O)O [VPA, valproate]	287 ^#	395 ^^	–	–	–	–	–	–	–	–	–	–	–	–	–	–	–	–	–	–	TD50 (rats [17]; rat, in vivo, po): 859 ^^

From article PMC6651381 (Molecules, 2019)
